Test results taken from ChEMBL document CHEMBL1150508, “Benzopyran potassium channel activators related to cromakalim - amide replacements at position 4” (1993).

Tests used:
Format in all cases: functional, Artery
Details in all cases: route oral
Rattus norvegicus [1] = assay: Maximum fall in systolic blood pressure at interval of 1 hour over a period of 1-6 hour after dose of 1.0 mg/kg (p.o.) in spontaneous hypertensive rat (SHR); design: unit not given here
Rattus norvegicus [2] = assay: Maximum fall in systolic blood pressure at interval of 1 hour over a period of 1-6 hour after dose of 3.0 mg/kg (p.o.) in spontaneous hypertensive rat (SHR)
Rattus norvegicus [3] = assay: Maximum fall in systolic blood pressure at interval of 1 hour over a period of 1-6 hour after dose of 0.3 mg/kg (p.o.) in spontaneous hypertensive rat (SHR); design: unit not given here
Rattus norvegicus [4] = assay: Maximum fall in systolic blood pressure at interval of 1 hour over a period of 1-6 hour after dose of 0.1 mg/kg (p.o.) in spontaneous hypertensive rat (SHR)
Rattus norvegicus [5] = assay: Maximum fall in systolic blood pressure at interval of 1 hour over a period of 1-6 hour after dose of 10 mg/kg (p.o.) in spontaneous hypertensive rat (SHR)
Rattus norvegicus [6] = assay: Maximum fall in systolic blood pressure at interval of 1 hour over a period of 1-6 hour after dose 1.0 mg/kg (p.o.) in spontaneous hypertensive rat (SHR)

Row | SMILES | Max fall in blood pressure (Rattus norvegicus [1]) | Max fall in blood pressure (Rattus norvegicus [3]) | other results
1 | C/N=C(/NC#N)NC1c2cnccc2OC(C)(C)[C@H]1O (stereo not given in full) | 25 | – | –
2 | CN/C(=N/C1=CC(C)(C)Oc2ccc(C#N)cc21)NC#N | 17 | – | Max fall in blood pressure (Rattus norvegicus [2]): 15
3 | C/N=C(\NC1c2cc(C#N)ccc2OC(C)(C)[C@H]1O)NS(N)(=O)=O (stereo not given in full) | – | – | Max fall in blood pressure (Rattus norvegicus [2]): 14
4 | C/N=C(/NC#N)NC1c2cc(C#N)ccc2OC(C)(C)C1O (single isomer, unassigned) | 41 | 16 | –
5 | CNC(=O)NC1c2cc(C#N)ccc2OC(C)(C)C1O (single isomer, unassigned) | 61 | 31 | Max fall in blood pressure (Rattus norvegicus [4]): 14
6 | C/N=C(/NC(C)=O)NC1c2cc(C#N)ccc2OC(C)(C)C1O (single isomer, unassigned) | 17 | – | –
7 | CC1(C)Oc2ccc(C#N)cc2C(/N=C(/N)NC#N)C1O (single isomer, unassigned) | 48 | 24 | –
8 | CN/C(=C\[N+](=O)[O-])NC1c2cc(C#N)ccc2OC(C)(C)C1O (single isomer, unassigned) | 7 | – | Max fall in blood pressure (Rattus norvegicus [5]): 12
9 | CC(C)(C)/N=C(/NC#N)NC1c2cc(C#N)ccc2OC(C)(C)C1O (single isomer, unassigned) | – | – | Max fall in blood pressure (Rattus norvegicus [6]): 8; Max fall in blood pressure (Rattus norvegicus [5]): 10
10 | C/N=C(/NC(N)=O)NC1c2cc(C#N)ccc2OC(C)(C)C1O (single isomer, unassigned) | – | – | Max fall in blood pressure (Rattus norvegicus [2]): 19
11 | CC1(C)Oc2ccc(C#N)cc2C(N2CCCC2=O)[C@H]1O (stereo not given in full) [CROMAKALIM] | 47 | 39 | Max fall in blood pressure (Rattus norvegicus [4]): 13
